{"source": "BindingDB's records for doi:10.7270/Q2V986KM", "about": "(Burnham Center For Chemical Genomics, 2011)"}
{"biological_target": "T1, Carboxy-terminal domain RNA polymerase II polypeptide A small phosphatase 1 (Homo sapiens, UniProt Q9GZU7)", "T1 sequence (Q9GZU7 whole entry)": "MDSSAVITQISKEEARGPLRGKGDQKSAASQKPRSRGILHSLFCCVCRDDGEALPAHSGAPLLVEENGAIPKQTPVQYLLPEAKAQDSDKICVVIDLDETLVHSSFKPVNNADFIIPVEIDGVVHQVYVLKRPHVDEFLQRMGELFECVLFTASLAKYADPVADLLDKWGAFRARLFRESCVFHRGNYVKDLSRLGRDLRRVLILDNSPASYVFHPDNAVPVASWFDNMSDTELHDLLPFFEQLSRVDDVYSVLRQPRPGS", "test": "CTDSP1 inhibitors, concentration-response, biochemical, absorbance-based, ultra-high-throughput screen actives (AID 540297)", "units": {"IC50": "µM"}}
{"molecule": "Cc1ccc(-c2csc(-n3[nH]c(C)c(N=Nc4ccccc4O)c3=O)n2)cc1", "IC50": 3.69}
{"molecule": "Cc1[nH][nH]c(=O)c1CCC(=O)NN=Cc1ccco1", "IC50": "> 80"}
{"molecule": "CCCCC1(C)OC(=O)C(=Cc2ccc(-c3ccc(Cl)c(C(=O)O)c3)o2)C(=O)O1", "note": "(configuration not stated)", "IC50": 15.1}
{"molecule": "CCOc1ccccc1/N=C1\\SCCCN1C", "IC50": 23}
{"molecule": "C[N+](C)(C)CCNC(=O)C1=C/C(=C\\N=O)N(Cc2ccccc2)C=C1", "IC50": 7.56}
{"molecule": "O=C(CCCC(=O)Nc1cccc(Br)c1)N/N=C/C1C=C([N+](=O)[O-])C=CC1=O", "note": "(configuration not stated)", "IC50": 6.26}
{"molecule": "CCOC(=O)C1C(COC(=O)C=Cc2ccco2)=NC(=O)NC1C", "note": "(configuration not stated)", "IC50": 4.25}
{"molecule": "CC(=O)C(C[N+]1(C)CCCCC1)N=O", "note": "(configuration not stated)", "IC50": 3.4}
{"molecule": "CON=C(C(=O)N[C@@H]1C(=O)N2C(C(=O)O)=C(COC(N)=O)CS[C@H]12)c1ccco1", "IC50": 2.09}
{"molecule": "O=c1c(Cl)c(N=NCc2ccc(Br)cc2)cnn1-c1ccccc1", "IC50": "> 80"}
{"molecule": "O=C(O)Cc1sc(N=NCc2ccccc2)nc1-c1ccccc1", "IC50": 5.14}
{"molecule": "O=C(O)CNC(=O)Cc1sc(NNc2nc(O)cs2)nc1O", "IC50": 5.27}
{"molecule": "CCOc1cc(CN=Nc2nc(O)c(CC(=O)O)s2)ccc1OCc1ccccc1Cl", "IC50": 4.28}
{"molecule": "COC(=O)C1C(COc2ccccc2)=NC(=O)NC1c1ccc2ccccc2c1", "note": "(configuration not stated)", "IC50": 13.8}
{"molecule": "COc1ccc(N/C(C)=[N+](\\C)CCNS(=O)(=O)c2ccc(Cl)cc2)cc1", "IC50": 3.29}
{"molecule": "C/C(Nc1ccc(F)cc1)=[N+](/C)CCNS(=O)(=O)c1ccc(Cl)cc1", "IC50": 5.86}
{"molecule": "Cc1nnc(NS(=O)(=O)c2ccc(/N=N/c3ccc(N)nc3N)cc2)s1", "IC50": 11.5}
{"molecule": "Cc1cc(C)n2c(SCC(=O)C(C#N)c3nc4ccccc4[nH]3)nnc2n1", "note": "(configuration not stated) [2-(1,3-dihydrobenzimidazol-2-ylidene)-4-[(5,7-dimethyl-[1,2,4]triazolo[4,3-a]pyrimidin-3-yl)sulfanyl]-3-oxidanylidene-butanenitrile]", "IC50": 5.01}
{"molecule": "O=C1Nc2ccc([N+](=O)[O-])cc2/C1=N/NC(=O)c1cc(-c2ccccc2Cl)nc2ccccc12", "note": "[2-(2-chlorophenyl)-N'-(2-keto-5-nitro-indol-3-yl)cinchoninohydrazide]", "IC50": 0.711}
{"molecule": "Cc1cc(=O)n(-c2ccc(Cl)c(C(=O)O)c2)[nH]1", "note": "[2-Chloro-5-(3-methyl-5-oxo-4,5-dihydro-pyrazol-1-yl)-benzoic acid]", "IC50": 8.96}
{"molecule": "CCOc1cc(CN=Nc2nc(O)c(CC(=O)O)s2)ccc1OCc1ccc(Cl)cc1", "note": "[2-[2-[2-[[4-[(4-chlorophenyl)methoxy]-3-ethoxy-phenyl]methylidene]hydrazinyl]-4-oxidanylidene-1,3-thiazol-5-yl]ethanoic acid]", "IC50": 7.12}
{"molecule": "COc1cc(CN=Nc2nc(O)c(CC(=O)O)s2)ccc1OCc1ccc(Cl)cc1", "note": "[2-[2-[2-[[4-[(4-chlorophenyl)methoxy]-3-methoxy-phenyl]methylidene]hydrazinyl]-4-oxidanylidene-1,3-thiazol-5-yl]ethanoic acid]", "IC50": 12.4}
{"molecule": "CCOc1cc(CN=Nc2nc(O)c(CC(=O)O)s2)ccc1OCc1ccc(Cl)cc1Cl", "note": "[2-[2-[(N''E)-N''-[4-(2,4-dichlorobenzyl)oxy-3-ethoxy-benzylidene]hydrazino]-4-keto-2-thiazolin-5-yl]acetic acid]", "IC50": 2.32}
{"molecule": "O=NCc1cc(Br)ccc1OCC(=O)O", "note": "[2-[4-bromanyl-2-(hydroxyiminomethyl)phenoxy]ethanoic acid]", "IC50": 8.03}
{"molecule": "CCOc1ccccc1C(=O)c1cc(O)c2ccccc2c1O", "note": "[2-[(2-ethoxyphenyl)-oxidanyl-methyl]naphthalene-1,4-dione]", "IC50": 4.16}
{"molecule": "C=CCOc1ccc(CN=Nc2ccc(S(=O)(=O)Nc3ccccc3C(=O)O)cc2[N+](=O)[O-])cc1OC", "note": "[2-[[4-[2-[(3-methoxy-4-prop-2-enoxy-phenyl)methylidene]hydrazinyl]-3-nitro-phenyl]sulfonylamino]benzoic acid]", "IC50": 2}
{"molecule": "CC(N=Nc1ccc(Cl)c(C(=O)O)c1)c1ccc[nH]1", "note": "(configuration not stated) [2-chloro-5-[2-[(1Z)-1-pyrrol-2-ylideneethyl]hydrazinyl]benzoic acid]", "IC50": 4.28}
{"molecule": "O=C1Nc2ccc([N+](=O)[O-])cc2/C1=N/NC(=O)c1ccccc1Cl", "note": "[2-chloro-N'-(5-nitro-2-oxoindol-3-yl)benzohydrazide]", "IC50": 6.44}
{"molecule": "COc1ccccc1NC(=O)CN1C(=O)/C(=N\\NC(=O)c2ccccc2O)c2ccccc21", "note": "[2-hydroxy-N-[(Z)-[1-[2-(2-methoxyanilino)-2-oxoethyl]-2-oxo-3-indolylidene]amino]benzamide]", "IC50": 2.74}
{"molecule": "Cc1ccccc1NC(=O)CN1C(=O)/C(=N\\NC(=O)c2ccccc2O)c2ccccc21", "note": "[2-{3-[(2-Hydroxy-benzoyl)-hydrazono]-2-oxo-2,3-dihydro-indol-1-yl}-N-o-tolyl-acetamide]", "IC50": 1.23}
{"molecule": "CC(=NNC(=O)c1cc(-c2cccc([N+](=O)[O-])c2)n[nH]1)C1C=CC=CC1=O", "note": "(configuration not stated) [3-(3-nitrophenyl)-N'-[(1E)-1-(6-oxo-1-cyclohexa-2,4-dienylidene)ethyl]-1H-pyrazole-5-carbohydrazide]", "IC50": 1.7}
{"molecule": "O=NCc1cccn1-c1cccc(C(=O)O)c1", "note": "[3-[2-(hydroximinomethyl)pyrrol-1-yl]benzoic acid]", "IC50": 3.09}
{"molecule": "O=C(O)c1cccc(-n2c(O)c3c(c2O)CC(Cl)=CC3)c1", "note": "[3-[5-chloranyl-1,3-bis(oxidanylidene)-3a,4,7,7a-tetrahydroisoindol-2-yl]benzoic acid]", "IC50": 10.3}
{"molecule": "O=[N+]([O-])c1cccc(-c2csc(N=NCc3cccc(O)c3)n2)c1", "note": "[3-[[[4-(3-nitrophenyl)-1,3-thiazol-2-yl]hydrazinylidene]methyl]phenol]", "IC50": 10.8}
{"molecule": "O=C1CC(=O)c2cccc(O)c2C1=O", "note": "[4,8-dihydroxynaphthalene-1,2-dione]", "IC50": 44.5}
{"molecule": "O=C(O)CCC(N=Nc1ccc(S(=O)(=O)N2CCCC2)cc1[N+](=O)[O-])c1cccs1", "note": "(configuration not stated) [4-[(2-nitro-4-pyrrolidin-1-ylsulfonyl-phenyl)hydrazinylidene]-4-thiophen-2-yl-butanoic acid]", "IC50": 15.5}
{"molecule": "N#CC1=c2sc(=Cc3ccco3)c(=O)n2C(=N)C(C#N)C1c1ccco1", "note": "(configuration not stated) [5-amino-7-(furan-2-yl)-2-(furan-2-ylmethylidene)-3-oxo-7H-[1,3]thiazolo[3,2-a]pyridine-6,8-dicarbonitrile]", "IC50": 3.44}
{"molecule": "CCCCCn1cc(O)c(-c2nc(-c3ccc(Cl)cc3)cs2)c1N", "note": "[5-azanyl-4-[4-(4-chlorophenyl)-1,3-thiazol-2-yl]-1-pentyl-2H-pyrrol-3-one]", "IC50": 5.38}
{"molecule": "CC=CC=CC(=O)C1C(=O)[C@]2(C)C(=O)C(C)(O)[C@H]1[C@H]([C@]1(C)OC(=O)C(C)C1=O)[C@H]2C(=O)C=CC=CC", "note": "(stereo partly drawn) [(1S,4R,6E,7S,8R)-8-[(2E,4E)-hexa-2,4-dienoyl]-2-hydroxy-7-[(2S)-5-hydroxy-2,4-dimethyl-3-oxofuran-2-yl]-6-[(2E,4E)-1-hydroxyhexa-2,4-dienylidene]-2,4-dimethylbicyclo[2.2.2]octane-3,5-dione]", "IC50": 5.92}
{"molecule": "Cc1ccc(-n2[nH]c(C)c(CN=Nc3ccc([N+](=O)[O-])cc3[N+](=O)[O-])c2=O)cc1C", "note": "[(4E)-2-(3,4-dimethylphenyl)-4-[[(2,4-dinitrophenyl)hydrazo]methylidene]-5-methyl-3-pyrazolone]", "IC50": 3.32}
{"molecule": "C=c1[nH]c(=Cc2ccc(CNC(=O)C(=O)Nc3ccccc3)o2)c(O)c1C(=O)OCC", "note": "[(5E)-5-[[5-[[(2-anilino-1,2-dioxoethyl)amino]methyl]-2-furanyl]methylidene]-2-methyl-4-oxo-1H-pyrrole-3-carboxylic acid ethyl ester]", "IC50": 8.55}
{"molecule": "C=CC1=C(C(=O)O)N2C(=O)[C@@H](NC(=O)C(N=O)c3csc(N)n3)[C@H]2SC1", "note": "(stereo partly drawn) [(6R,7R)-7-[[2-(2-azanyl-1,3-thiazol-4-yl)-2-hydroxyimino-ethanoyl]amino]-3-ethenyl-8-oxidanylidene-5-thia-1-azabicyclo[4.2.0]oct-2-ene-2-carboxylic acid]", "IC50": 4.48}
{"molecule": "O=C(NN=C/C=C/c1ccc(Br)cc1)c1ccc2c(c1)OCO2", "note": "[Benzo[1,3]dioxole-5-carboxylic acid [3-(4-bromo-phenyl)-allylidene]-hydrazide]", "IC50": 4.92}
{"molecule": "Cc1ccc(C(=O)N[n+]2cc(O)[c-](-c3nc(-c4cccc([N+](=O)[O-])c4)cs3)c2N)cc1", "note": "[MLS000391743]", "IC50": 4.06}
{"molecule": "Cc1cccc(NC(=O)CN2C(=O)/C(=N\\NC(=O)c3ccccc3O)c3ccccc32)c1", "note": "[MLS000548432]", "IC50": 1.99}
{"molecule": "Cc1ccc(OCC(=O)NN=C/C=C/c2ccco2)cc1", "note": "[MLS000563872]", "IC50": 6}
{"molecule": "CCN(CC)P(=O)(NC(=O)C(Cl)(Cl)Cl)N(CC)CC", "note": "[MLS000564159]", "IC50": 2.49}
{"molecule": "CC1=CC(=NNC(=O)c2ccccc2O)c2ccccc2C1=O", "note": "[MLS000685531]", "IC50": 5.15}
{"molecule": "O=C1C=C(O)/C(=C/NN2C(=O)C3C(C2=O)C2C=CC3C23CC3)C=C1[N+](=O)[O-]", "note": "(configuration not stated) [MLS000705206]", "IC50": 4.9}
{"molecule": "CSc1nnc(C)c(CC=Nc2ccc(F)cc2F)n1", "note": "[MLS000707071]", "IC50": 13.3}
{"molecule": "C=CCC1C=C(/C=C/c2nc(O)c([N+](=O)[O-])c(=O)[nH]2)C=C(OC)C1=O", "note": "(configuration not stated) [MLS000716350]", "IC50": 19.3}
{"molecule": "Cc1ccc(C(=O)NN=C/C=C/c2ccc(Br)cc2)cn1", "note": "[MLS000723380]", "IC50": 24.1}
{"molecule": "O=C(N/N=C/C1C=C(Cl)C=C([N+](=O)[O-])C1=O)c1cc(-c2ccccn2)nc2ccccc12", "note": "(configuration not stated) [MLS000773704]", "IC50": 1.85}
{"molecule": "COc1ccc(CN=Nc2ncc(Br)cn2)c(OC)c1", "note": "[MLS000856301]", "IC50": 19.6}
{"molecule": "COc1ccccc1N/C(C)=[N+](\\C)CCNS(=O)(=O)c1ccc(Cl)cc1", "note": "[MLS001165874]", "IC50": 3.73}
{"molecule": "CC1(CC(=O)NN=CC2C=C([N+](=O)[O-])C(=O)C=C2O)OCCO1", "note": "(configuration not stated) [N'-[(E)-(2-hydroxy-5-nitro-4-oxocyclohexa-2,5-dien-1-ylidene)methyl]-2-(2-methyl-1,3-dioxolan-2-yl)acetohydrazide]", "IC50": 4.41}
{"molecule": "CC(=NNC(=O)c1cccc(N=NC(C)c2ccco2)c1)c1ccco1", "note": "(configuration not stated) [N-[1-(2-furanyl)ethylideneamino]-3-[2-[1-(2-furanyl)ethylidene]hydrazinyl]benzamide]", "IC50": 3.17}
